Measurements published in PubChem BioAssay AID2060620 (Molecular Pharmacology Branch, DTP, NCI, 2025).

System: 328373-195-R-J1-PDC complex spheroids, viability % test/control
Test: Anticancer human tumor 328373-195-R-J1-PDC patient-derived head and neck squamous carcinoma cell line growth inhibition [CLK]
Conditions: for IC50: curve of first compound; for viability, T/C: stronger effect = lower value
Method in brief: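 Multi-cell-type spheroids combined patient-derived tumor cells with HUVEC endothelial cells and human mesenchymal stem cells. Paired agents were dosed in half-log steps down from about clinical Cmax, or from 10 microM where Cmax was unknown.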

[1] = second compound 0.0316 µM, first compound 0.0316 µM
[2] = second compound 0.0316 µM, first compound 0.1 µM
[3] = second compound 0.0316 µM, first compound 0.316 µM
[4] = second compound 0.0316 µM, first compound 1 µM
[5] = second compound 0.0316 µM, first compound 3.16 µM
[6] = second compound 0.0316 µM, first compound 10 µM
[7] = second compound 0.1 µM, first compound 0.0316 µM
[8] = second compound 0.1 µM, first compound 0.1 µM
[9] = second compound 0.1 µM, first compound 0.316 µM
[10] = second compound 0.1 µM, first compound 1 µM
[11] = second compound 0.1 µM, first compound 3.16 µM
[12] = second compound 0.1 µM, first compound 10 µM
[13] = second compound 0.316 µM, first compound 0.0316 µM
[14] = second compound 0.316 µM, first compound 0.1 µM
[15] = second compound 0.316 µM, first compound 0.316 µM
[16] = second compound 0.316 µM, first compound 1 µM
[17] = second compound 0.316 µM, first compound 3.16 µM
[18] = second compound 0.316 µM, first compound 10 µM
[19] = second compound 1 µM, first compound 0.0316 µM
[20] = second compound 1 µM, first compound 0.1 µM
[21] = second compound 1 µM, first compound 0.316 µM
[22] = second compound 1 µM, first compound 1 µM
[23] = second compound 1 µM, first compound 3.16 µM
[24] = second compound 1 µM, first compound 10 µM
[25] = second compound 3.16 µM, first compound 0.0316 µM
[26] = second compound 3.16 µM, first compound 0.1 µM
[27] = second compound 3.16 µM, first compound 0.316 µM
[28] = second compound 3.16 µM, first compound 1 µM
[29] = second compound 3.16 µM, first compound 3.16 µM
[30] = second compound 3.16 µM, first compound 10 µM
[31] = second compound 10 µM, first compound 0.0316 µM
[32] = second compound 10 µM, first compound 0.1 µM
[33] = second compound 10 µM, first compound 0.316 µM
[34] = second compound 10 µM, first compound 1 µM
[35] = second compound 10 µM, first compound 3.16 µM
[36] = second compound 10 µM, first compound 10 µM
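Also: spheroids exposed to the agents for 7 days.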

Which results are given for Nc1ccn(C2OC(CO)C(O)C2(F)F)c(=O)n1 (centres undefined) + CNC(=O)c1ccc(Nc2nc(OC3CCCC3)c3c(-c4ccc5nc(C)oc5c4)c[nH]c3n2)c(OC)c1?
IC50 (second compound 0.0316 µM): < 0.0316 µM; IC50 (second compound 0.1 µM): < 0.0316 µM; IC50 (second compound 0.316 µM): < 0.0316 µM; IC50 (second compound 1 µM): < 0.0316 µM; IC50 (second compound 3.16 µM): < 0.0316 µM; IC50 (second compound 10 µM): < 0.0316 µM; viability, T/C [1]: 2.44%; viability, T/C [2]: 1.85%; viability, T/C [3]: 3.64%; viability, T/C [4]: 2.74%; viability, T/C [5]: 2.63%; viability, T/C [6]: 1.95%; viability, T/C [7]: 3.4%; viability, T/C [8]: 1.85%; viability, T/C [9]: 2.02%; viability, T/C [10]: 2.08%; viability, T/C [11]: 2.83%; viability, T/C [12]: 4.18%; viability, T/C [13]: 3.23%; viability, T/C [14]: 2.68%; viability, T/C [15]: 4.06%; viability, T/C [16]: 2.46%; viability, T/C [17]: 2.95%; viability, T/C [18]: 1.84%; viability, T/C [19]: 4.36%; viability, T/C [20]: 1.86%; viability, T/C [21]: 1.79%; viability, T/C [22]: 2.35%; viability, T/C [23]: 3.18%; viability, T/C [24]: 3.19%; viability, T/C [25]: 5.21%; viability, T/C [26]: 3.42%; viability, T/C [27]: 4.01%; viability, T/C [28]: 2.03%; viability, T/C [29]: 2.01%; viability, T/C [30]: 1.88%; viability, T/C [31]: 6.95%; viability, T/C [32]: 3.09%; viability, T/C [33]: 3.18%; viability, T/C [34]: 2.49%; viability, T/C [35]: 2.14%; viability, T/C [36]: 1.82%

Which IC50 (second compound 0.0316 µM) does the source give for O=c1[nH]cc(F)c(=O)[nH]1 + CNC(=O)c1ccc(Nc2nc(OC3CCCC3)c3c(-c4ccc5nc(C)oc5c4)c[nH]c3n2)c(OC)c1 here?
The IC50 was less than 0.0316 µM.

And the IC50 (second compound 0.1 µM)?
Its IC50 is less than 0.0316 µM.

And the IC50 (second compound 0.316 µM)?
The IC50 was less than 0.0316 µM.

What about the IC50 (second compound 1 µM) of the same compound?
Its IC50 is less than 0.0316 µM.

And the IC50 (second compound 3.16 µM)?
Its IC50 is less than 0.0316 µM.

And the IC50 (second compound 10 µM)?
The IC50 was less than 0.0316 µM.

What about the viability, T/C [1] of the same compound?
The viability, T/C was 37%.

And the viability, T/C [2]?
The viability, T/C was 18.3%.

And the viability, T/C [3]?
The viability, T/C was 8.48%.

What about the viability, T/C [4] of the same compound?
The viability, T/C was 5.66%.

And the viability, T/C [5]?
Its viability, T/C is 6.31%.

What about the viability, T/C [6] of the same compound?
Its viability, T/C is 11.2%.

What about the viability, T/C [7] of the same compound?
Its viability, T/C is 8.64%.

And the viability, T/C [8]?
Its viability, T/C is 5.34%.

And the viability, T/C [9]?
Its viability, T/C is 5%.

What about the viability, T/C [10] of the same compound?
The viability, T/C was 3.23%.

What about the viability, T/C [11] of the same compound?
Its viability, T/C is 2.62%.

What about the viability, T/C [12] of the same compound?
Its viability, T/C is 7.23%.

What about the viability, T/C [13] of the same compound?
The viability, T/C was 7.44%.

What about the viability, T/C [14] of the same compound?
The viability, T/C was 6.09%.

And the viability, T/C [15]?
The viability, T/C was 4.45%.

What about the viability, T/C [16] of the same compound?
Its viability, T/C is 4.15%.

What about the viability, T/C [17] of the same compound?
The viability, T/C was 4.13%.

What about the viability, T/C [18] of the same compound?
The viability, T/C was 6.8%.

What about the viability, T/C [19] of the same compound?
Its viability, T/C is 8.18%.

What about the viability, T/C [20] of the same compound?
Its viability, T/C is 7.54%.

What about the viability, T/C [21] of the same compound?
The viability, T/C was 3.88%.

What about the viability, T/C [22] of the same compound?
Its viability, T/C is 2.98%.

And the viability, T/C [23]?
The viability, T/C was 2.83%.

What about the viability, T/C [24] of the same compound?
The viability, T/C was 4.21%.

And the viability, T/C [25]?
The viability, T/C was 11%.

What about the viability, T/C [26] of the same compound?
The viability, T/C was 7.15%.

What about the viability, T/C [27] of the same compound?
The viability, T/C was 3.65%.

And the viability, T/C [28]?
The viability, T/C was 2.93%.

What about the viability, T/C [29] of the same compound?
Its viability, T/C is 3.84%.

What about the viability, T/C [30] of the same compound?
Its viability, T/C is 4.43%.

And the viability, T/C [31]?
The viability, T/C was 12.2%.

What about the viability, T/C [32] of the same compound?
Its viability, T/C is 8.27%.

And the viability, T/C [33]?
Its viability, T/C is 4.41%.

What about the viability, T/C [34] of the same compound?
Its viability, T/C is 3.11%.

What about the viability, T/C [35] of the same compound?
Its viability, T/C is 3.46%.

What about the viability, T/C [36] of the same compound?
Its viability, T/C is 1.56%.
